Values of other authors as cited in patent US20040037903A1, “Phytonutrient formula for the relief of chronic pain resulting from inflammation” (priority 2003, published 2004).

Legend:
5-HETE [1] = details: in vivo in rats, curcumin added to the diet
IL-8 = details: human cell lines
PGE2 = details: in vivo in rats, curcumin added to the diet
TNF-α = details: human cell lines
IL-1B = details: human cell lines
[2] = animal study, similar active dose
5-HETE [3] = details: rat polymorphonuclear leukocytes
IL-6 = details: incubation of mouse macrophages with resveratrol

COc1cc(/C=C/C(=O)CC(=O)/C=C/c2ccc(O)c(OC)c2)ccc1O [curcumin, diferuloyl methane]
reduction of 5-HETE (5-HETE [1]): 80% | inhibition of cytokine IL-8 (IL-8): at least 50% | reduction of PGE2 (PGE2): 38% | inhibition of cytokine TNF-α (TNF-α): at least 50% | inhibition of cytokine IL-1B (IL-1B): at least 50%

CCCCC1C(=O)N(c2ccccc2)N(c2ccccc2)C1=O [phenylbutazone]
ulcerogen index [2]: 1.7

Oc1ccc(/C=C/c2cc(O)cc(O)c2)cc1 [resveratrol, 3,5,4′-trihydroxy-trans-stilbene]
inhibition of 5-HETE (5-HETE [3]): greater than 70% | inhibition of the production of IL-6 (IL-6): 34%
